According to ChEMBL document CHEMBL5291721, “A preclinical secondary pharmacology resource illuminates target-adverse drug reaction associations of marketed drugs” (Nat Commun, 2023):

Legend:
Endothelin-1 receptor = biological target: T1, Endothelin-1 receptor (Homo sapiens, UniProt P25101)
T1 sequence (P25101 whole entry): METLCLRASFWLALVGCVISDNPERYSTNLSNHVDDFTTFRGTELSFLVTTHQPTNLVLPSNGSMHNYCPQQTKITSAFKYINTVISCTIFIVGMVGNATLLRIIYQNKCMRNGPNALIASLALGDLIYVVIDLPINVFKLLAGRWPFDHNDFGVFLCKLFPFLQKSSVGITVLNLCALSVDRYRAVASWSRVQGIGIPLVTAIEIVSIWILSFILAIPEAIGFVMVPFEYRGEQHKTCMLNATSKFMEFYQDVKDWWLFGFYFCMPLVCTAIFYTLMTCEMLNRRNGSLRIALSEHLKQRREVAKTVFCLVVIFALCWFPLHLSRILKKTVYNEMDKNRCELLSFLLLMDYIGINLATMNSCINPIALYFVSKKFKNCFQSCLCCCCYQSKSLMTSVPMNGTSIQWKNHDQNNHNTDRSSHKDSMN

Thromboxane A2 receptor = biological target: T2, Thromboxane A2 receptor (Homo sapiens, UniProt P21731)
T2 sequence (P21731 whole entry): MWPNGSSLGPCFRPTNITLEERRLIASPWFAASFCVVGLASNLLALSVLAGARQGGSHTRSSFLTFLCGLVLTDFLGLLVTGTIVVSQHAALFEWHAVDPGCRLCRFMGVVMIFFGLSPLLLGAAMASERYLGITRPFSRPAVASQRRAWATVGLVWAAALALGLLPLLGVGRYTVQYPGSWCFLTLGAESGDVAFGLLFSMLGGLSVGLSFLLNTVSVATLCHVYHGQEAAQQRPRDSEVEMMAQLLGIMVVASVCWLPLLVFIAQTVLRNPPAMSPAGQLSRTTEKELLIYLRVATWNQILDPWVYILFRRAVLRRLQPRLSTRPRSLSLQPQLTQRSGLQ

[1] = biological target: Voltage-gated inwardly rectifying potassium channel KCNH2 (Homo sapiens, UniProt Q12809); type: functional; conditions: read-out: AC50
Chain of Voltage-gated inwardly rectifying potassium channel KCNH2 (Q12809 whole entry): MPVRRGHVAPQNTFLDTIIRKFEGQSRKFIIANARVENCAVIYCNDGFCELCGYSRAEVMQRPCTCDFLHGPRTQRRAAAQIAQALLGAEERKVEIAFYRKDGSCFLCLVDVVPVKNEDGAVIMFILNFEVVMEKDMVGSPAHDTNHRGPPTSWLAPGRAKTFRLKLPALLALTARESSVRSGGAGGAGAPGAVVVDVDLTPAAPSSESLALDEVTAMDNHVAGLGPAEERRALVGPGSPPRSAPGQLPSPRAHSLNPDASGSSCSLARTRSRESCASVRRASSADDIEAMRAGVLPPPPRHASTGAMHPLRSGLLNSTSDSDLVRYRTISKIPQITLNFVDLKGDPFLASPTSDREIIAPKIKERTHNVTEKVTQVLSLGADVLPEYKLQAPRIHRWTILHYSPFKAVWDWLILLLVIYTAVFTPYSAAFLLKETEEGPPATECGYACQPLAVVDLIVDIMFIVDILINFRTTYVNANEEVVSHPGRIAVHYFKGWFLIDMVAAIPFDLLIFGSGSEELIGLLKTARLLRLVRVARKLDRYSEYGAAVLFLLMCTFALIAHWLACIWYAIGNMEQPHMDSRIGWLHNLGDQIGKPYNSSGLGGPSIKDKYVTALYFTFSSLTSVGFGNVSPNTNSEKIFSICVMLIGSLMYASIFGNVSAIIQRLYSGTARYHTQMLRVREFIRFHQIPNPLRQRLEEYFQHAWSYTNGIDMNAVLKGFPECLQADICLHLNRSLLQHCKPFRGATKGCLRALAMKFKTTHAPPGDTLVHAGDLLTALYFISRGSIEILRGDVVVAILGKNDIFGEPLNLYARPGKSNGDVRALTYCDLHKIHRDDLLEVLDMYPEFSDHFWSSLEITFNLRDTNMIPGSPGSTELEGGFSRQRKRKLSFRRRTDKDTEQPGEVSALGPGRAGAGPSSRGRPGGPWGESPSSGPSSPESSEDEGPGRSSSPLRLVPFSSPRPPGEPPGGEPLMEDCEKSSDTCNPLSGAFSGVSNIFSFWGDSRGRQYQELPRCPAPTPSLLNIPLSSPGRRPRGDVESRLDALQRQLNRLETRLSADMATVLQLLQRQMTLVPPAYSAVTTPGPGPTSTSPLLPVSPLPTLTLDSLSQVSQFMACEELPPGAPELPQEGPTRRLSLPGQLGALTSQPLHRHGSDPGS

[2] = biological target: Beta-2 adrenergic receptor (Homo sapiens, UniProt P07550)
Chain of Beta-2 adrenergic receptor (P07550 whole entry): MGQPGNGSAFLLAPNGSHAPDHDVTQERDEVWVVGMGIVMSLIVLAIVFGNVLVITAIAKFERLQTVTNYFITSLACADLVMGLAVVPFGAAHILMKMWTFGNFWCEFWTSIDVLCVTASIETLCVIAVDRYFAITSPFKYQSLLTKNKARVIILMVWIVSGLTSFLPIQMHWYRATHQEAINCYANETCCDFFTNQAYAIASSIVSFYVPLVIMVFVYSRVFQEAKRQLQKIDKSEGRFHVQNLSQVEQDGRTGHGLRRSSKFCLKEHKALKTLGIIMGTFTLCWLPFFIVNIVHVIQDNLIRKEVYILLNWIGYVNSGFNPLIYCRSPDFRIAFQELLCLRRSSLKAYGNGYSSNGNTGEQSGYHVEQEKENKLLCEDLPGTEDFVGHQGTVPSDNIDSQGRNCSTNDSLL

[3] = biological target: Gamma-aminobutyric acid receptor subunit alpha-1 (Rattus norvegicus, UniProt P62813)
Chain of Gamma-aminobutyric acid receptor subunit alpha-1 (P62813 whole entry): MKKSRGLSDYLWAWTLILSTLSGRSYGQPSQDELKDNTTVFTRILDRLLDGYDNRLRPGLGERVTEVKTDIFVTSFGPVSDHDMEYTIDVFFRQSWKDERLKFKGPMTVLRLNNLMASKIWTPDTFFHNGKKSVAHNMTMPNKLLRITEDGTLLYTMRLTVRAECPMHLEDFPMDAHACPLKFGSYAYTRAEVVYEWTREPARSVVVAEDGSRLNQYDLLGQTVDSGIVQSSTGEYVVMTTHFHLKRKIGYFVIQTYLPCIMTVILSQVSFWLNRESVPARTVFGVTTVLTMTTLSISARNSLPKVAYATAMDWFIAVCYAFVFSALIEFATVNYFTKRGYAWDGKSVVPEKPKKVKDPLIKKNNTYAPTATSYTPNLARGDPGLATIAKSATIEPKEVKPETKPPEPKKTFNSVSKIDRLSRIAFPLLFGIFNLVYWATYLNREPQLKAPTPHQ

Histamine H3 receptor = Histamine H3 receptor (Homo sapiens, UniProt Q9Y5N1)
Chain of Histamine H3 receptor (Q9Y5N1 whole entry): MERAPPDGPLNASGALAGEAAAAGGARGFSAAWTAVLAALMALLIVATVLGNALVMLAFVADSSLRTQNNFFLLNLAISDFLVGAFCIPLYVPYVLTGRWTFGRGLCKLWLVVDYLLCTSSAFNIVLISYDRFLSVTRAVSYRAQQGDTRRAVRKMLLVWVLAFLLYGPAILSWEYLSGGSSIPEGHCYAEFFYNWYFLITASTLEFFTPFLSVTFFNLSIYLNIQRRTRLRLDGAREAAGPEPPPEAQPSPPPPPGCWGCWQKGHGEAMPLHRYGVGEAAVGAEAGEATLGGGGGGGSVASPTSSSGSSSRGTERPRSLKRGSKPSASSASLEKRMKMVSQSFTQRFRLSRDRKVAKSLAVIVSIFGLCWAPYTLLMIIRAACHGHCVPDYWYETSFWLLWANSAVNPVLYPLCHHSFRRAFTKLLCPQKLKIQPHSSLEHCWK

[4] = biological target: T3, Prostaglandin G/H synthase 1 (Rattus norvegicus, UniProt Q63921); type: functional
T3 sequence (Q63921 whole entry): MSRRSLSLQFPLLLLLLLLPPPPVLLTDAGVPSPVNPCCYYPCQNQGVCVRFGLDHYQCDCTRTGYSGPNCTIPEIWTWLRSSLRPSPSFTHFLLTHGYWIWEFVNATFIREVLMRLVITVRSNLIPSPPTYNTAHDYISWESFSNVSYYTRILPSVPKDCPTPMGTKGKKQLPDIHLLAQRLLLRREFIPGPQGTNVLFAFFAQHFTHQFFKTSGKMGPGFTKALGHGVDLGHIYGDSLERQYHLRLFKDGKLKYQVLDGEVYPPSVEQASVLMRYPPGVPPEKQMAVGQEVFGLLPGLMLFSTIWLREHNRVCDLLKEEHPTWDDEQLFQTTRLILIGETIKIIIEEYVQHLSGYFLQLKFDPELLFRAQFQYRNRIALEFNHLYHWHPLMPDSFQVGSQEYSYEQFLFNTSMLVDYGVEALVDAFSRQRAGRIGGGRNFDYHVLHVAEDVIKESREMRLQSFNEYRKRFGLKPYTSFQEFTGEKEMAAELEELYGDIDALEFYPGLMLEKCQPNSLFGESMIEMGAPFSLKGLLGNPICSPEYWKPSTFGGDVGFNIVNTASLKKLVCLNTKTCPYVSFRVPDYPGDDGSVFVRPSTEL

Adenosine receptor A3 = biological target: T4, Adenosine receptor A3 (Homo sapiens, UniProt P0DMS8)
T4 sequence (P0DMS8 whole entry): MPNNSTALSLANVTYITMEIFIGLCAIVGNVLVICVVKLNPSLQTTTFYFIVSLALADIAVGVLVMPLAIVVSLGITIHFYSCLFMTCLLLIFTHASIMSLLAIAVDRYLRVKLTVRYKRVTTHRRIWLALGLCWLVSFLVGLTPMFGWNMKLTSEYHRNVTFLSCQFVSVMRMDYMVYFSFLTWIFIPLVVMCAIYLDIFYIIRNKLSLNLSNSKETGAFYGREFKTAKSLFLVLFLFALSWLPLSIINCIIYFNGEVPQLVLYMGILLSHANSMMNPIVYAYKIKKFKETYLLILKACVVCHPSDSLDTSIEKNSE

Progesterone receptor = biological target: T5, Progesterone receptor (Homo sapiens, UniProt P06401); type: functional
T5 sequence (P06401 whole entry): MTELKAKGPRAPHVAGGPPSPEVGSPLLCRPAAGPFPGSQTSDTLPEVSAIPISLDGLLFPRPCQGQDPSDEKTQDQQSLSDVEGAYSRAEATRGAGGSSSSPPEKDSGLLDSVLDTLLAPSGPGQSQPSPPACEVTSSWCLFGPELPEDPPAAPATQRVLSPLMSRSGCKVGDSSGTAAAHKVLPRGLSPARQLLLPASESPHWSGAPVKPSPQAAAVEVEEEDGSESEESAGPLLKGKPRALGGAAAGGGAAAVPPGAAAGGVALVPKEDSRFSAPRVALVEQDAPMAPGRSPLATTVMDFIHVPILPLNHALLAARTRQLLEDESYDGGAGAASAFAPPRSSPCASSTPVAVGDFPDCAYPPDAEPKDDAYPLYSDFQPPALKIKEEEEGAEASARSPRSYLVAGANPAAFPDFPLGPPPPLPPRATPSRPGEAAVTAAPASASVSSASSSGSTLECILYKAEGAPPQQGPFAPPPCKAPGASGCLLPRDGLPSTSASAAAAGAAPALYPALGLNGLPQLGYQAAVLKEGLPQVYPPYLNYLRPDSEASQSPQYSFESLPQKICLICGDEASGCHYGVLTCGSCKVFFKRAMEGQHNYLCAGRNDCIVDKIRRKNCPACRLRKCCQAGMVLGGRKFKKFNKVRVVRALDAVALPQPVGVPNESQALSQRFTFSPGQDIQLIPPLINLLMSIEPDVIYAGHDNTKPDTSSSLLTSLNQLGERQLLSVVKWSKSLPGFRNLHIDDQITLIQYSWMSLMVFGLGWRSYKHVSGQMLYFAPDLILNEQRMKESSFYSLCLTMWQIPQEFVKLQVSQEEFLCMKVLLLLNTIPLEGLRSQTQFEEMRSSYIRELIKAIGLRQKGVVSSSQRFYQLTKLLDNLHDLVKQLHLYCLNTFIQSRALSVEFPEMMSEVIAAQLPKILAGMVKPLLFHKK

[5] = biological target: Muscarinic acetylcholine receptor M3 (Homo sapiens, UniProt P20309)
Chain of Muscarinic acetylcholine receptor M3 (P20309 whole entry): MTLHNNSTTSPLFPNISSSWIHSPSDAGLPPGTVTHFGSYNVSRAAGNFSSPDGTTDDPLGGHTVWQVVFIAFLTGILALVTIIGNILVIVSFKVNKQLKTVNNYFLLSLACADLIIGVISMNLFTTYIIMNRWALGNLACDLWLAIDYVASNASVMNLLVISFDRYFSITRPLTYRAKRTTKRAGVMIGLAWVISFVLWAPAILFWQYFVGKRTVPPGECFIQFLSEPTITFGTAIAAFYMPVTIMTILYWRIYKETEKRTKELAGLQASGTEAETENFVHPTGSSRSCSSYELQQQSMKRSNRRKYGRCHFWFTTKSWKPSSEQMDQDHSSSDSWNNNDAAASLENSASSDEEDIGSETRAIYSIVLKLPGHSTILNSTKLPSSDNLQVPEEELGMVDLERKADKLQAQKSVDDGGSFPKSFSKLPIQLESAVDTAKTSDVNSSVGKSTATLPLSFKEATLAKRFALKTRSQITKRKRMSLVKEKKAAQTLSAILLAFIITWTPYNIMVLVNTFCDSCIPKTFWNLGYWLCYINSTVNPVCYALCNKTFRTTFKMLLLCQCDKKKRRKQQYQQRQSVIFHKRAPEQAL
Note: assay procedure not described here.

| Structure (SMILES) | AC50 (Endothelin-1 receptor) [µM] | AC50 (Thromboxane A2 receptor) [µM] | AC50 [1] [µM] | AC50 [2] [µM] | AC50 [3] [µM] | AC50 (Histamine H3 receptor) [µM] | AC50 [4] [µM] | AC50 (Adenosine receptor A3) [µM] | AC50 (Progesterone receptor) [µM] | AC50 [5] [µM] |
| --- | --- | --- | --- | --- | --- | --- | --- | --- | --- | --- |
| CC1=C(CC(=O)O)c2cc(F)ccc2/C1=C\c1ccc([S+](C)[O-])cc1 (stereo not given) | > 30 | > 30 | > 30 | > 10 | > 10 | > 10 | > 30 | > 30 |  |  |
| O=C(O[C@H]1C[N+]2(CCCOc3ccccc3)CCC1CC2)C(O)(c1cccs1)c1cccs1 [ACLIDINIUM BROMIDE] | > 30 | > 30 | 0.43 | > 10 | > 10 | > 10 | > 30 | > 30 |  |  |
| Cc1nnc2n1-c1ccc(Cl)cc1C(c1ccccc1)=NC2 [ALPRAZOLAM] | > 30 | > 30 | > 30 | > 10 | > 10 | > 10 | > 30 | > 30 |  |  |
| CNCCc1ccccn1 [BETAHISTINE] | > 30 | > 30 | > 30 | > 30 | > 30 | 11 | > 30 | > 30 | > 30 |  |
| CCCCOC(=O)c1ccc(N)cc1 [BUTAMBEN] | > 30 | > 30 | > 30 | > 30 | > 30 | > 30 | 0.6 | > 30 | > 30 |  |
| CC(=O)OCC1=C(C(=O)O)N2C(=O)[C@@H](NC(=O)Cc3cccs3)[C@H]2SC1 [CEPHALOTHIN] | > 30 |  | > 30 |  |  | > 30 | > 30 | > 30 | > 30 | > 30 |
| CC1=C(C(=O)O)N2C(=O)[C@@H](NC(=O)[C@H](N)C3=CCC=CC3)[C@H]2SC1 [CEPHRADINE] | > 30 |  | > 30 |  |  | > 30 | > 30 | 27 | > 30 | > 30 |
| O=C1CN=C(c2ccccc2Cl)c2cc([N+](=O)[O-])ccc2N1 [CLONAZEPAM] | > 30 | > 30 | > 30 | > 10 | > 10 | > 10 | > 30 | > 30 |  |  |
| CCCCCCOC(=O)NC(=N)c1ccc(NCc2nc3cc(C(=O)N(CCC(=O)OCC)c4ccccn4)ccc3n2C)cc1 [DABIGATRAN ETEXILATE] | > 30 |  |  |  |  | > 30 | > 30 | 11 | > 30 | > 30 |
| CCc1ccc(C(=O)C(C)CN2CCCCC2)cc1 (stereo not given) [EPERISONE] | > 30 | > 30 | 1.57 | > 30 | > 30 | 1.3 | > 30 | > 30 | > 30 |  |
| CCN1C(=O)NC(c2ccccc2)C1=O (stereo not given) [ETHOTOIN] | > 30 |  | > 30 |  |  | > 30 | 22 | 12 | > 30 | > 30 |
| CCOC(=O)C1=C(C)NC(C)=C(C(=O)OC)C1c1cccc(Cl)c1Cl (stereo not given) [FELODIPINE] | > 30 | 8.41 | > 30 | > 10 | > 10 | > 10 | > 30 | 7.91 |  |  |
| CC(=O)OCC(=O)[C@@]1(O)CC[C@H]2[C@@H]3CCC4=CC(=O)CC[C@]4(C)[C@@]3(F)[C@@H](O)C[C@@]21C [FLUDROCORTISONE ACETATE] | > 30 | > 30 | > 30 | > 30 | > 30 | > 30 | > 30 | > 30 | 8.2 |  |
| O=C(O)c1nn(Cc2ccc(Cl)cc2Cl)c2ccccc12 [LONIDAMINE] | > 30 |  | > 30 |  |  | > 30 | > 30 | > 30 | > 30 | > 30 |
